Laboratory results published in ChEMBL document CHEMBL5726731, “Substituted benzenesulfonamides as sodium channel blockers” (2019).

Test: Measurement of Sodium Ion Channel Blocking Effects: In order to measure the sodium ion channel blocking effect, an IonFlux16 Auto patch clamp system (Fluxion, Inc.) and a plate for exclusive use were used. The cells were distributed in an extracellular solution (4 mM KCl, 138 mM NaCl, 1 mM MgCl2, 1.8 mM CaCl2, 5.6 mM glucose, 10 mM HEPES, pH 7.45), and then dispensed in the specified region of the plate, and each of the prepared compound samples was diluted at various concentrations, and then dispensed in the specified region of the plate.
Assay type: cell-based

| IC50 [nM] | SMILES |
| --- | --- |
| 435 | COc1ccc(Nc2cc(F)c(S(=O)(=O)Nc3cscn3)cc2Cl)c(N2CC[C@H](N(C)C)C2)c1 |
| 369 | CNC1CCN(c2cc(OC(F)(F)F)ccc2Nc2c(F)cc(S(=O)(=O)Nc3cscn3)cc2F)C1 (stereo not given) |
| 277 | COC1CCN(c2cc(F)ccc2Nc2cc(F)c(S(=O)(=O)Nc3cscn3)cc2Cl)C1 (stereo not given) |
| 28 | CN[C@H]1CCN(c2cc(C(F)(F)F)ccc2Nc2ccc(S(=O)(=O)Nc3cscn3)cc2Cl)C1 |
| 489 | CNC1CCN(c2cc(C)ccc2Nc2cc(F)c(S(=O)(=O)Nc3cscn3)cc2Cl)C1 (stereo not given) |
| 541 | CN1CCN(c2cc(C(F)(F)F)ccc2Nc2cc(F)c(S(=O)(=O)Nc3cscn3)cc2Cl)CC1 |
| > 1000 | CN[C@@H]1CCCN(c2cc(OC)ccc2Nc2ccc(S(=O)(=O)Nc3cscn3)cc2)C1 |
| 1170 | CN(C)[C@H]1CCN(c2cc(C(F)(F)F)ccc2Nc2cc(F)c(S(=O)(=O)Nc3cscn3)cc2Cl)C1 |
| > 1000 | O=S(=O)(Nc1cscn1)c1ccc(Nc2ccc(F)cc2N2CC[C@@H](F)C2)cc1 |
| 126 | CN(C)[C@@H]1CCN(c2cc(OC(F)F)ccc2Nc2cc(F)c(S(=O)(=O)Nc3cscn3)cc2Cl)C1 |
| 125 | O=S(=O)(Nc1cscn1)c1cc(Cl)c(Nc2ccc(Cl)cc2N2CCC(N3CCCC3)C2)cc1F (stereo not given) |
| 27 | CNC1CCN(c2cc(C(F)(F)F)ccc2Nc2ccc(S(=O)(=O)Nc3cscn3)cc2Cl)C1 (stereo not given) |
| > 1000 | CNC1CCN(c2cc(OC)ccc2Nc2ccc(S(=O)(=O)Nc3cscn3)c(F)c2)C1 (stereo not given) |
| 212 | CC(=O)N[C@@H]1CCN(c2cc(C(F)(F)F)ccc2Nc2cc(F)c(S(=O)(=O)Nc3cscn3)cc2Cl)C1 |
| 100 | CN(C)CCN(C)c1cc(F)ccc1Nc1cc(F)c(S(=O)(=O)Nc2cscn2)cc1Cl |
| 4 | CNCCN(C)c1ccccc1Nc1cc(F)c(S(=O)(=O)Nc2ncc(Cl)s2)cc1Cl |
| 44 | CN[C@@H]1CCCN(c2cc(Cl)ccc2Nc2cc(F)c(S(=O)(=O)Nc3cscn3)cc2Cl)C1 |
| 470 | CNCCN(C)c1cc(OC)ccc1Nc1cc(F)c(S(=O)(=O)Nc2ncc(F)cn2)cc1Cl |
| 120 | CC(=O)N[C@@H]1CCN(c2cc(Cl)ccc2Nc2cc(F)c(S(=O)(=O)Nc3cscn3)cc2Cl)C1 |
| > 10000 | CN(C)[C@H]1CCN(c2cc(F)ccc2Nc2cc(F)c(S(=O)(=O)Nc3cscn3)cc2Cl)C1 |
| > 1000 | O=S(=O)(Nc1cscn1)c1ccc(Nc2ccc(F)cc2N2CC[C@@H](F)C2)cc1F |
| 140 | COC1CCN(c2cc(C(F)(F)F)ccc2Nc2cc(F)c(S(=O)(=O)Nc3cscn3)cc2Cl)C1 (stereo not given) |
| 103 | CN(C)[C@H]1CCN(c2cc(C(F)(F)F)ccc2Nc2ccc(S(=O)(=O)Nc3cscn3)cc2Cl)C1 |

| IC50 [nM] | SMILES |
| --- | --- |
| > 1000 | O=S(=O)(Nc1cscn1)c1cc(F)c(Nc2ccc(F)cc2N2CC[C@@H](F)C2)c(F)c1 |
| > 1000 | CN1CCN(c2cc(F)ccc2Nc2cc(F)c(S(=O)(=O)Nc3cscn3)cc2Cl)CC1 |
| 241 | NC1CCN(c2cc(F)ccc2Nc2ccc(S(=O)(=O)Nc3cscn3)cc2Cl)C1 (stereo not given) |
| 53 | CNC1CCN(c2cc(OC(F)(F)F)ccc2Nc2cc(F)c(S(=O)(=O)Nc3cscn3)cc2Cl)C1 (stereo not given) |
| 182 | CCN(CC)C1CCN(c2cc(Cl)ccc2Nc2cc(F)c(S(=O)(=O)Nc3cscn3)cc2Cl)C1 (stereo not given) |
| 70 | CNCCN(C)c1ccccc1Nc1cc(F)c(S(=O)(=O)Nc2ccc(F)cn2)cc1Cl |
| 120 | CNCCN(C)c1cc(Cl)ccc1Nc1cc(F)c(S(=O)(=O)Nc2ncc(F)cn2)cc1Cl |
| 50 | CN[C@H]1CCN(c2cc(F)ccc2Nc2cc(F)c(S(=O)(=O)Nc3cscn3)cc2Cl)C1 |
| 372 | CNC1CCN(c2cc(F)ccc2Nc2ccc(S(=O)(=O)Nc3cscn3)c(F)c2)C1 (stereo not given) |
| 184 | CNCCN(C)c1cc(OC)ccc1Nc1cc(F)c(S(=O)(=O)Nc2ncc(F)s2)cc1Cl |
| 460 | CNCCN(C)c1cc(C#N)ccc1Nc1cc(F)c(S(=O)(=O)Nc2ccccn2)cc1Cl |
| > 1000 | CN1CCN(c2cc(F)ccc2Nc2ccc(S(=O)(=O)Nc3cscn3)cc2Cl)CC1 |
| 50 | CNCCN(C)c1cc(Cl)ccc1Nc1cc(F)c(S(=O)(=O)Nc2cscn2)cc1Cl |
| 236 | O=S(=O)(Nc1cscn1)c1cc(Cl)c(Nc2ccc(F)cc2N2CC[C@@H](F)C2)cc1F |
| 149 | O=S(=O)(Nc1cscn1)c1cc(Cl)c(Nc2ccc(F)cc2N2CCCNCC2)cc1F |
| 375 | CNC1CCN(c2c(F)cccc2Nc2ccc(S(=O)(=O)Nc3cscn3)cc2Cl)C1 (stereo not given) |
| > 1000 | CN[C@@H]1CCCN(c2cc(F)ccc2Nc2ccc(S(=O)(=O)Nc3cscn3)cc2)C1 |
| > 1000 | CN[C@@H]1CCCN(c2cc(OC)ccc2Nc2ccc(S(=O)(=O)Nc3cscn3)cc2Cl)C1 |
| > 300 | CN[C@@H]1CCN(c2cc(F)ccc2Nc2ccc(S(=O)(=O)Nc3cscn3)c(F)c2)C1 |
| 352 | COC1CCN(c2cc(C(F)(F)F)ccc2Nc2ccc(S(=O)(=O)Nc3cscn3)cc2Cl)C1 (stereo not given) |
| 23 | CN[C@H]1CCN(c2cc(C(F)(F)F)ccc2Nc2cc(F)c(S(=O)(=O)Nc3cscn3)cc2Cl)C1 |
| 140 | CNCCN(C)c1cc(OC)ccc1Nc1cc(F)c(S(=O)(=O)Nc2cscn2)cc1Cl |
| 20 | CNCCN(C)c1cc(Cl)ccc1Nc1cc(F)c(S(=O)(=O)Nc2nccs2)cc1Cl |

| IC50 [nM] | SMILES |
| --- | --- |
| 160 | CN1CCN(c2cc(OC(F)F)ccc2Nc2cc(F)c(S(=O)(=O)Nc3cscn3)cc2Cl)CC1 |
| > 1000 | NC1CCN(c2cc(F)ccc2Nc2ccc(S(=O)(=O)Nc3cscn3)c(F)c2)C1 (stereo not given) |
| 1010 | CNC1CCN(c2cc(F)ccc2Nc2ccc(S(=O)(=O)Nc3cscn3)cc2Cl)C1 (stereo not given) |
| > 1000 | CNC1CCN(c2nc(Cl)ccc2Nc2cc(F)c(S(=O)(=O)Nc3cscn3)cc2Cl)C1 (stereo not given) |
| 412 | CNC1CCN(c2cc(F)ccc2Nc2c(F)cc(S(=O)(=O)Nc3cscn3)cc2F)C1 (stereo not given) |
| 447 | CNC1CCN(c2cc(OC(F)(F)F)ccc2Nc2ccc(S(=O)(=O)Nc3cscn3)cc2)C1 (stereo not given) |
| 350 | CN(C)CCN(C)c1cc(F)ccc1Nc1ccc(S(=O)(=O)Nc2cscn2)cc1Cl |
| 100 | CN(C)[C@@H]1CCN(c2cc(F)ccc2Nc2cc(F)c(S(=O)(=O)Nc3cscn3)cc2Cl)C1 |
| 1930 | CC(=O)N[C@@H]1CCN(c2cc(F)ccc2Nc2cc(F)c(S(=O)(=O)Nc3cscn3)cc2Cl)C1 |
| 50 | CNCCN(C)c1ccccc1Nc1cc(F)c(S(=O)(=O)Nc2nccs2)cc1Cl |
| 70 | CNCCN(C)c1cc(C(F)(F)F)ccc1Nc1cc(F)c(S(=O)(=O)Nc2ccccn2)cc1Cl |
| 80 | CNCCN(C)c1cc(Cl)ccc1Nc1cc(F)c(S(=O)(=O)Nc2ccc(F)cn2)cc1Cl |
| 21 | CNC1CCN(c2cc(C(F)(F)F)ccc2Nc2cc(F)c(S(=O)(=O)Nc3cscn3)cc2Cl)C1 (stereo not given) |
| 20 | CNCCN(C)c1cc(C#N)ccc1Nc1cc(F)c(S(=O)(=O)Nc2nccs2)cc1Cl |
| 27 | CNCCN(C)c1ccccc1Nc1cc(F)c(S(=O)(=O)Nc2ncc(F)s2)cc1Cl |
| 108 | CNC1CCN(c2cc(OC(F)(F)F)ccc2Nc2ccc(S(=O)(=O)Nc3cscn3)c(F)c2)C1 (stereo not given) |
| 216 | CC(=O)N[C@@H]1CCN(c2cc(C(F)(F)F)ccc2Nc2ccc(S(=O)(=O)Nc3cscn3)cc2Cl)C1 |
| 200 | CNCCN(C)c1cc(OC)ccc1Nc1cc(F)c(S(=O)(=O)Nc2ccc(F)cn2)cc1Cl |
| 362 | CN[C@@H]1CCN(c2cc(F)ccc2Nc2ccc(S(=O)(=O)Nc3cscn3)cc2Cl)C1 |
| 73 | CN[C@@H]1CCCN(c2cc(OC)ccc2Nc2cc(F)c(S(=O)(=O)Nc3cscn3)cc2Cl)C1 |
| 10 | CNCCN(C)c1cc(C(F)(F)F)ccc1Nc1cc(F)c(S(=O)(=O)Nc2nccs2)cc1Cl |
| 6 | CNCCN(C)c1cc(OC)ccc1Nc1cc(F)c(S(=O)(=O)Nc2ncc(Cl)s2)cc1Cl |
| 50 | CNCCN(C)c1cc(C(F)(F)F)ccc1Nc1cc(F)c(S(=O)(=O)Nc2ccc(F)cn2)cc1Cl |

| IC50 [nM] | SMILES |
| --- | --- |
| 32 | CNC1CCN(c2cc(C#N)ccc2Nc2cc(F)c(S(=O)(=O)Nc3cscn3)cc2Cl)C1 (stereo not given) |
| 241 | CN[C@H]1CCN(c2cc(F)ccc2Nc2ccc(S(=O)(=O)Nc3cscn3)c(F)c2)C1 |
| 205 | NC1CCN(c2cc(F)ccc2Nc2cc(F)c(S(=O)(=O)Nc3cscn3)cc2Cl)C1 (stereo not given) |
| 686 | CNC1CCN(c2c(F)cccc2Nc2ccc(S(=O)(=O)Nc3cscn3)c(F)c2)C1 (stereo not given) |
| 278 | CN(C)[C@@H]1CCN(c2cc(C(F)(F)F)ccc2Nc2cc(F)c(S(=O)(=O)Nc3cscn3)cc2Cl)C1 |
| 20 | CNCCN(C)c1ccccc1Nc1cc(F)c(S(=O)(=O)Nc2cc(C)on2)cc1Cl |
| 20 | CNCCN(C)c1cc(OC)ccc1Nc1cc(F)c(S(=O)(=O)Nc2nccs2)cc1Cl |
| 6580 | CC(=O)N[C@@H]1CCN(c2cc(F)ccc2Nc2ccc(S(=O)(=O)Nc3cscn3)cc2Cl)C1 |
| > 1000 | O=S(=O)(Nc1cscn1)c1ccc(Nc2ccc(F)cc2N2CC[C@@H](F)C2)c(Cl)c1 |
| > 1000 | CNC1CCN(c2cc(Cl)cnc2Nc2cc(F)c(S(=O)(=O)Nc3cscn3)cc2Cl)C1 (stereo not given) |
| 44 | CN[C@@H]1CCN(c2cc(F)ccc2Nc2cc(F)c(S(=O)(=O)Nc3cscn3)cc2Cl)C1 |
| > 1000 | CNC1CCN(c2cc(OC)ccc2Nc2ccc(S(=O)(=O)Nc3cscn3)cc2Cl)C1 (stereo not given) |
| > 1000 | CN[C@@H]1CCCN(c2cc(OC)ccc2Nc2c(F)cc(S(=O)(=O)Nc3cscn3)cc2F)C1 |
| 120 | CNCCN(C)c1ccccc1Nc1cc(F)c(S(=O)(=O)Nc2ccccn2)cc1Cl |
| > 1000 | CN[C@@H]1CCN(c2cc(F)ccc2Nc2c(F)cc(S(=O)(=O)Nc3cscn3)cc2F)C1 |
| 46 | CN(C)[C@H]1CCN(c2cc(OC(F)F)ccc2Nc2cc(F)c(S(=O)(=O)Nc3cscn3)cc2Cl)C1 |
| 357 | CN[C@@H]1CCCN(c2cc(F)ccc2Nc2ccc(S(=O)(=O)Nc3cscn3)c(F)c2)C1 |
| > 1000 | CN[C@@H]1CCN(c2cc(F)ccc2Nc2ccc(S(=O)(=O)Nc3cscn3)cc2)C1 |
| 1220 | COC1CCN(c2cc(F)ccc2Nc2ccc(S(=O)(=O)Nc3cscn3)cc2Cl)C1 (stereo not given) |
| > 1000 | CN[C@@H]1CCCN(c2cc(OC)ccc2Nc2ccc(S(=O)(=O)Nc3cscn3)c(F)c2)C1 |
| 240 | CNCCN(C)c1cc(F)ccc1Nc1cc(F)c(S(=O)(=O)Nc2cc(C)[nH]n2)cc1Cl |
